Measurements from patent publication US12122778B2, “Activating pyruvate kinase R” (Novo Nordisk Health Care AG, priority 2018, dated 2024).

Target: PKR(wt) (Homo sapiens, UniProt P30613)
Experiment: Luminescence Biochemical Assay (Kinase Glo Plus), wild type PKR
Details: without FBP; for activation at 1.54 µM: 1.54 μM compound, read-out: AC50 LUM KGP woFBP % Fold@1.54 μM mean; for AC50: read-out: AC50 LUM KGP woFBP AC50 μM gmean; for Emax: read-out: AC50 LUM KGP woFBP MAX % FOLD mean
Experimental: In some embodiments, a PKR Activating Compound can have: (1) an AC50 value of less than 0.1 μM (e.g., compounds with AC50 values of “+++” in Table 13), 0.1-1.0 μM (e.g., compounds with AC50 values of “++” in Table 13), or 1.01-40 μM (e.g., compounds with AC50 values of “+” in Table 13); (2) a MAX % Fold of 75%-250%, 250-500%, or 75%-500%; and/or (3) a % Fold@1.54 μM of 75%-250%, 250-500%, or 75%-500%. In some embodiments, a PKR Activating Compound has (1) an AC50 value of less than 1.0 μM; (2) a MAX % Fold of 75%-500%; and/or (3) a % Fold@1.54 μM of 75%-500%.
The phosphorylation of Adenosine-5′-diphosphate (ADP) by various mutants of PKR was determined by the Kinase Glo Plus Assay (Promega) in the presence or absence of FBP [D-Fructose-1,6-diphosphate; BOC Sciences, CAS: 81028-91-3] as follows. Unless otherwise indicated, all reagents were purchased from Sigma-Aldrich. All reagents were prepared in buffer containing 50 mM Tris-HCl, 100 mM KCl, 5 mM MgCl2, and 0.01% Triton X100, 0.03% BSA, and 1 mM DTT. Enzyme and PEP [Phospho(enol) pyruvic acid] were added at 2× to all wells of an assay-ready plate containing serial dilutions of test compounds or DMSO vehicle. Final enzyme concentrations for PKR(wt), PKR(R510Q), and PKR(G332S) were 0.8 nM, 0.8 nM, and 10 nM respectively. Final PEP concentration was 100 μM. The Enzyme/PEP mixture was incubated with compounds for 30 minutes at RT before the assay was initiated with the addition of 2×ADP [Adenosine-5′-diphosphate] and KinaseGloPlus. Final concentration of ADP was 100 μM. […] For assays containing FBP, that reagent is added at 30 μM upon reaction initiation. Reactions were allowed to progress for 45 minutes at RT until luminescence was recorded by the BMG PHERAstar FS Multilabel Reader. All compounds were tested in triplicate at concentrations ranging from 42.5 μM to 2.2 nM in 0.83% DMSO.
Luminescence values were converted to % Fold increase by normalizing to the average of the DMSO control and multiplying by 100. Max, min, slope and AC50 were determined by the standard four parameter fit algorithm of ActivityBase XE Runner. Compounds were evaluated with three parameters—AC50, MAX % Fold, and % Fold@1.54 μM (FIG. 1). The AC50 value for a compound is the concentration (μM) corresponding to the midway between the maximum and minimum values of the four parameter logistic curve fit (i.e., at which the % fold increase along the four parameter logistic curve fit is halfway between MAX % Fold and MIN % Fold (% Fold Midpoint)), MAX % Fold is the highest fold increase observed at any concentration of compound, and % Fold@1.54 μM is the fold increase at a compound concentration of 1.54 μM. The parameter % Fold@1.54 μM was selected to capture elements of both the AC50 and MAX % Fold and to provide a ranking based on both potency and effect. The compound concentration of 1.54 μM was chosen as one that can optimally differentiate the set of compounds based on the range of activities observed.
As set forth in Table 13 below, AC50 values (columns A, D, G) are defined as follows: ≤0.1 μM (+++); >0.1 μM and ≤1.0 μM (++); >1.0 μM and ≤40 μM (+); >40 μM (0). Max % FOLD values (columns B, E, H) are defined as follows: ≤75% (+); >75% and ≤250% (++); >250% and ≤500% (+++). % Fold@1.54 μM values (columns C, F, J) are defined as follows: ≤75% (+); >75% and ≤250% (++); >250% and ≤50000 (+++).

PKR(wt), sequence (P30613 whole entry): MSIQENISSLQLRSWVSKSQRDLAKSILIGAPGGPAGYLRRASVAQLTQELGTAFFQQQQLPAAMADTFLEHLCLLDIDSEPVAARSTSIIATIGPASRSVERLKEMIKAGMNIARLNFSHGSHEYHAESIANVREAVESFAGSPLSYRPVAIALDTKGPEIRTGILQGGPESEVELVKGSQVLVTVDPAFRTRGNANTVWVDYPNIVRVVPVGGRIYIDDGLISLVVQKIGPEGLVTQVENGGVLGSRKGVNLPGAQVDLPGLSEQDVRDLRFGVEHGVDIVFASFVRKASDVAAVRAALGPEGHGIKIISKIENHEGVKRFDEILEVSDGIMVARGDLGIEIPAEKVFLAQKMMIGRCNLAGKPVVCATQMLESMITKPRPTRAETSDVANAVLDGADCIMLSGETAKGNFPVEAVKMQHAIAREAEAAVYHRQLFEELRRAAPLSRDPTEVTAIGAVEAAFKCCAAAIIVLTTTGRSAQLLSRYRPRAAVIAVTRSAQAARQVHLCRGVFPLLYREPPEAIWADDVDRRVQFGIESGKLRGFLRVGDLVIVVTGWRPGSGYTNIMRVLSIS

activation at 1.54 µM [%] | AC50 [µM] | Emax [%] | Compound
75 to 250 | 0.1 to 1 | 250 to 500 | O=C(CCC(F)F)N1CC2=C(C1)CN(S(=O)(=O)c1ccc3occc3c1)C2 [Example 1-2, 1-(5-(Benzofuran-5-ylsulfonyl)-3,4,5,6-tetrahydropyrrolo[3,4-c]pyrrol-2(1H)-yl)-4,4-difluorobutan-1-one]
75 to 250 | 0.1 to 1 | 250 to 500 | CC(C)(O)C(=O)N1CC2=C(C1)CN(S(=O)(=O)c1ccc3occc3c1)C2 [Example 1-3, 1-(5-(Benzofuran-5-ylsulfonyl)-3,4,5,6-tetrahydropyrrolo[3,4-c]pyrrol-2(1H)-yl)-2-hydroxy-2-methylpropan-1-one]
75 to 250 | 0.1 to 1 | 250 to 500 | O=C(N1CC2=C(C1)CN(S(=O)(=O)c1ccc3occc3c1)C2)C1(O)CC1 [Example 1-4, (5-(Benzofuran-5-ylsulfonyl)-3,4,5,6-tetrahydropyrrolo[3,4-c]pyrrol-2(1H)-yl)(1-hydroxycyclopropyl)methanone]
75 to 250 | 1 to 40 | 75 to 250 | CN(C)CCC(=O)N1CC2=C(C1)CN(S(=O)(=O)c1ccc3occc3c1)C2 [Example 1-5, 1-(5-(Benzofuran-5-ylsulfonyl)-3,4,5,6-tetrahydropyrrolo[3,4-c]pyrrol-2(1H)-yl)-3-(dimethylamino)propan-1-one]
75 to 250 | 1 to 40 | 75 to 250 | NCC1(C(=O)N2CC3=C(C2)CN(S(=O)(=O)c2ccc4occc4c2)C3)CC1 [Example 2-1, (1-(Aminomethyl)cyclopropyl)(5-(benzofuran-5-ylsulfonyl)-3,4,5,6-tetrahydropyrrolo[3,4-c]pyrrol-2(1H)-yl)methanone]
75 to 250 | 0.1 to 1 | 250 to 500 | O=C(NC1CCOC1)N1CC2=C(C1)CN(S(=O)(=O)c1ccc3occc3c1)C2 (stereo not drawn) [Example 3-2, 5-(Benzofuran-5-ylsulfonyl)-N-(tetrahydrofuran-3-yl)-3,4,5,6-tetrahydropyrrolo[3,4-c]pyrrole-2(1H)-carboxamide]
75 to 250 | 1 to 40 | 75 to 250 | COC[C@@H](C)NC(=O)N1CC2=C(C1)CN(S(=O)(=O)c1ccc3occc3c1)C2 [Example 3-3, (R)-5-(benzofuran-5-ylsulfonyl)-N-(1-methoxypropan-2-yl)-3,4,5,6-tetrahydropyrrolo[3,4-c]pyrrole-2(1H)-carboxamide]
75 to 250 | 0.1 to 1 | 75 to 250 | O=C(NCc1cccnc1)N1CC2=C(C1)CN(S(=O)(=O)c1ccc3occc3c1)C2 [Example 3-4, 5-(Benzofuran-5-ylsulfonyl)-N-(pyridin-3-ylmethyl)-3,4,5,6-tetrahydropyrrolo[3,4-c]pyrrole-2(1H)-carboxamide]
75 to 250 | 1 to 40 | 75 to 250 | O=C(NCC1CCOC1)N1CC2=C(C1)CN(S(=O)(=O)c1ccc3occc3c1)C2 (stereo not drawn) [Example 3-5, 5-(Benzofuran-5-ylsulfonyl)-N-((tetrahydrofuran-3-yl)methyl)-3,4,5,6-tetrahydropyrrolo[3,4-c]pyrrole-2(1H)-carboxamide]
75 to 250 | 1 to 40 | 75 to 250 | NS(=O)(=O)c1ccc(S(=O)(=O)N2CC3=C(CN(C(=O)[C@H](O)c4ccccc4)C3)C2)cc1 [Example 13-1, (R)-4-((5-(2-hydroxy-2-phenylacetyl)-3,4,5,6-tetrahydropyrrolo[3,4-c]pyrrol-2(1H)-yl)sulfonyl)benzenesulfonamide]
75 to 250 | 1 to 40 | 75 to 250 | O=C([C@H](O)c1ccccc1)N1CC2=C(C1)CN(S(=O)(=O)c1ccccc1OC(F)(F)F)C2 [Example 18-46, (2R)-2-hydroxy-2-phenyl-1-{5-[2-(trifluoromethoxy)benzenesulfonyl]-1H,2H,3H,4H,5H,6H-pyrrolo[3,4-c]pyrrol-2-yl}ethan-1-one]
75 to 250 | 0.1 to 1 | 75 to 250 | O=C([C@H](O)c1ccccc1)N1CC2=C(C1)CN(S(=O)(=O)c1cc(F)ccc1Cl)C2 [Example 18-57, (2R)-1-[5-(2-chloro-5-fluorobenzenesulfonyl)-1H,2H,3H,4H,5H,6H-pyrrolo[3,4-c]pyrrol-2-yl]-2-hydroxy-2-phenylethan-1-one]
75 to 250 | 1 to 40 | 75 to 250 | CC[C@H](O)C(=O)N1CC2=C(C1)CN(S(=O)(=O)c1ccc3c(c1)N(C)CCO3)C2 [Example 18-75, (2S)-2-hydroxy-1-{5-[(4-methyl-3,4-dihydro-2H-1,4-benzoxazin-6-yl)sulfonyl]-1H,2H,3H,4H,5H,6H-pyrrolo[3,4-c]pyrrol-2-yl}butan-1-one]
75 to 250 | 1 to 40 | 75 to 250 | CN1CCOc2ccc(S(=O)(=O)N3CC4=C(CN(C(=O)[C@@H]5CCCO5)C4)C3)cc21 [Example 18-77, 4-Methyl-6-({5-[(2S)-oxolane-2-carbonyl]-1H,2H,3H,4H,5H,6H-pyrrolo[3,4-c]pyrrol-2-yl}sulfonyl)-3,4-dihydro-2H-1,4-benzoxazine]
75 to 250 | 1 to 40 | 75 to 250 | CN1CCOc2ccc(S(=O)(=O)N3CC4=C(CN(C(=O)C5CCCC5)C4)C3)cc21 [Example 18-78, 6-({5-Cyclopentanecarbonyl-1H,2H,3H,4H,5H,6H-pyrrolo[3,4-c]pyrrol-2-yl}sulfonyl)-4-methyl-3,4-dihydro-2H-1,4-benzoxazine]
250 to 50000 | 0.1 to 1 | 250 to 500 | O=C(c1csc(Nc2cccnc2)n1)N1CC2=C(C1)CN(S(=O)(=O)c1ccc3occc3c1)C2 [Example 18-79, N-{4-[5-(1-benzofuran-5-sulfonyl)-1H,2H,3H,4H,5H,6H-pyrrolo[3,4-c]pyrrole-2-carbonyl]-1,3-thiazol-2-yl}pyridin-3-amine]
250 to 50000 | 0.1 to 1 | 250 to 500 | O=C(c1ccc(OCC(F)(F)F)nc1)N1CC2=C(C1)CN(S(=O)(=O)c1ccc3occc3c1)C2 [Example 18-81, 5-[5-(1-Benzofuran-5-sulfonyl)-1H,2H,3H,4H,5H,6H-pyrrolo[3,4-c]pyrrole-2-carbonyl]-2-(2,2,2-trifluoroethoxy)pyridine]
75 to 250 | 1 to 40 | 75 to 250 | Cc1cnc(C(=O)N2CC3=C(C2)CN(S(=O)(=O)c2ccc4occc4c2)C3)cn1 [Example 18-82, 2-[5-(1-Benzofuran-5-sulfonyl)-1H,2H,3H,4H,5H,6H-pyrrolo[3,4-c]pyrrole-2-carbonyl]-5-methylpyrazine]

Compound | activation at 1.54 µM [%] | AC50 [µM] | Emax [%]
CS(=O)(=O)NCC(=O)N1CC2=C(C1)CN(S(=O)(=O)c1ccc3occc3c1)C2 [Example 1-1, N-(2-(5-(benzofuran-5-ylsulfonyl)-3,4,5,6-tetrahydropyrrolo[3,4-c]pyrrol-2(1H)-yl)-2-oxoethyl)methanesulfonamide] | 75 to 250 | 0.1 to 1 | 75 to 250
O=C(NCC1CCCO1)N1CC2=C(C1)CN(S(=O)(=O)c1ccc3occc3c1)C2 (stereo not drawn) [Example 3-1, 5-(Benzofuran-5-ylsulfonyl)-N-((tetrahydrofuran-2-yl)methyl)-3,4,5,6-tetrahydropyrrolo[3,4-c]pyrrole-2(1H)-carboxamide] | 75 to 250 | 0.1 to 1 | 75 to 250
